Results on 53 molecules are retold here after patent publication US20230078764A1 (Yumanity Therapeutics, Inc., priority 2019, published 2023).

The structures appear in SMILES notation.

One assay deals with T1, human SCD5 (Homo sapiens, UniProt Q86SK9).
T1 construct: expressed in transfected cells; host or cells: yeast strain with OLE1 deleted, plasmid-borne human SCD5 (selected in SD-Ura)
T1 sequence (Q86SK9 1-330): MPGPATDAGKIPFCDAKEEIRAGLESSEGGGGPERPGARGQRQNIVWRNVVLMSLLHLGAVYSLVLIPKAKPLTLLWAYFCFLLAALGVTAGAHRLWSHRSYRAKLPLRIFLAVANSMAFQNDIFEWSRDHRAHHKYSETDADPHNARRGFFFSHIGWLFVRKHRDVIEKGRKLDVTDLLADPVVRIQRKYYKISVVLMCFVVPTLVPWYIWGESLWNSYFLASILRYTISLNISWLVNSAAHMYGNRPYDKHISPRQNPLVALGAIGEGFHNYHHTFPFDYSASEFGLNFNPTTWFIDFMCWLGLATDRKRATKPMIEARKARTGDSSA
Description: Growth inhibition of yeast strain expressing human SCD5 as sole desaturase (OLE1 deleted), OD600 readout. In kind it is cell-based. The conditions noted are these: yeast strain expressing human SCD5 as sole desaturase; growth (OD600) after 40 h at 30° C.; read-out: SCD5 IC50.

The target of the next assay is T2, human SCD1 (Homo sapiens, UniProt O00767).
T2 construct: expressed in transfected cells; host or cells: yeast strain with OLE1 deleted, plasmid-borne human SCD1 (selected in SD-Ura)
T2 sequence (O00767 1-359): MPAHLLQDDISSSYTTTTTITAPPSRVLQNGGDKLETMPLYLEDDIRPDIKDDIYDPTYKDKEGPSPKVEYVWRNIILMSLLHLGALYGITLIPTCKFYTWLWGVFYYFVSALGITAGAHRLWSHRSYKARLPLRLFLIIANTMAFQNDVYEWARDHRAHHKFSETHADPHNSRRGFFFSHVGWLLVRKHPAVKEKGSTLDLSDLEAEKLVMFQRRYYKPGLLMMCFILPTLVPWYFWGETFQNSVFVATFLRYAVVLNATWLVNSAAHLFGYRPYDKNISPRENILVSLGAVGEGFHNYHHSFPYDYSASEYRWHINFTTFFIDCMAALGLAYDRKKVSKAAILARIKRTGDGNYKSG
Description: Growth inhibition of yeast strain expressing human SCD1 as sole desaturase (OLE1 deleted), OD600 readout. In kind it is cell-based. As to conditions: yeast strain expressing human SCD1 as sole desaturase; growth (OD600) after 40 h at 30° C.; read-out: SCD1 IC50.

As to `CCN1N=C(C(=O)Nc2ncc(Cc3cccc(F)c3)s2)CCC1=O` [Compound 414], the IC50 (in general, the concentration that gives 50% inhibition) at human SCD5 was more than 45 µM; at human SCD1, 25 µM.

As for `O=C(Nc1ccc(Cc2cccc(Cl)c2)cn1)c1ccc2nccn2n1` [Compound 415], the IC50 on human SCD5 and at human SCD1 was more than 45 µM throughout.

As for `CN1N=C(C(=O)Nc2ncc(Oc3ccccc3Cl)s2)CCC1=O` [Compound 416], the IC50 at human SCD5 and on human SCD1 was more than 45 µM in each case.

As for `O=C(Nc1ccc(Cc2cccc(F)c2)cn1)c1ccc(F)c(Cl)n1` [Compound 417], the IC50 at human SCD5 and on human SCD1 was more than 45 µM in each case.

For the molecule `CN1N=C(C(=O)Nc2ncc(C(C)(O)c3cccc(F)c3)s2)CCC1=O` (stereo not shown) [Compound 419], the IC50 at human SCD5 and at human SCD1 was more than 45 µM in each case.

In the case of `O=C(Nc1ncc(Cc2cccc(F)c2)s1)C1=NN(CCO)C(=O)CC1` [Compound 420], the IC50 at human SCD5 and on human SCD1 was more than 45 µM each time.

As for `O=C(Nc1ccc(Cc2cccc(F)c2)cn1)c1ccc(=O)n(C2CCC2)n1` [Compound 421], the IC50 on human SCD5 and on human SCD1 was more than 45 µM throughout.

For the molecule `CN1N=C(C(=O)Nc2nc(Cc3ccc4ccccc4n3)cs2)CCC1=O` [Compound 422], the IC50 at human SCD5 and at human SCD1 was more than 45 µM in each case.

With `CS(=O)(=O)c1ccc(C(=O)Nc2ccc(Cc3cccc(F)c3)cn2)cc1` [Compound 423], the IC50 at human SCD5 and on human SCD1 was more than 45 µM in each case.

For `COC(C)(c1cccc(F)c1)c1cnc(NC(=O)C2=NN(C)C(=O)CC2)s1` (stereo not shown) [Compound 424], the IC50 on human SCD5 and at human SCD1 was more than 45 µM throughout.

For `Cn1nc(C(=O)Nc2cncc(Cc3cccc(Cl)c3)c2)ccc1=O` [Compound 426], the concentration for half-maximal inhibition (IC50) on human SCD5 and on human SCD1 was more than 45 µM throughout.

Regarding `Cn1cc(C(=O)Nc2ccc(OCc3cc(F)cc(C#N)c3)cn2)ccc1=O` [Compound 427], the IC50 on human SCD5 and at human SCD1 was more than 45 µM each time.

On to `COC(=O)c1ccc(C(=O)Nc2ccc(COc3ccc(F)c(Cl)c3)cn2)nc1` [Compound 428], for which the half-maximal inhibitory concentration (IC50) on human SCD5 and at human SCD1 was more than 45 µM throughout.

On to `O=C(Nc1ccc(Cc2cccc(Cl)c2)cn1)c1ccn2cnnc2c1` [Compound 429], for which the IC50 at human SCD5 and on human SCD1 was more than 45 µM each time.

Take `Cn1nc(C(=O)Nc2nc(C(N)=O)c(Cc3cccc(F)c3)s2)ccc1=O` [Compound 430]: the IC50 on human SCD5 and on human SCD1 was more than 45 µM throughout.

On to `Cn1cc(C(=O)Nc2nnc(Cc3cc(F)cc(Cl)c3)s2)ccc1=O` [Compound 431], for which the IC50 on human SCD5 was more than 45 µM; at human SCD1 it was 1.07 µM.

For `Cn1nc(C(=O)N2CCC(Oc3cccc(Cl)c3)CC2)ccc1=O` [Compound 432], the IC50 at human SCD5 and at human SCD1 was more than 45 µM each time.

Turning to `CN1N=C(C(=O)Oc2ccc(NCc3cccc(F)c3)nc2)CCC1=O` [Compound 433], the IC50 on human SCD5 and on human SCD1 was more than 45 µM each time.

As to `Cn1nc(NC(=O)N[C@H]2CC[C@H](Cc3cccc(Cl)c3)CC2)ccc1=O` [Compound 434], the IC50 on human SCD5 and at human SCD1 was more than 45 µM in each case.

For the molecule `Cc1ccc(Cc2ccc(NC(=O)C3=NN(C)C(=O)CC3)nc2)cn1` [Compound 435], the IC50 on human SCD5 and at human SCD1 was more than 45 µM in each case.

Consider `CN1N=C(C(=O)Nc2ccc(Cc3cccc(CO)c3)cn2)CCC1=O` [Compound 436], for which the IC50 is more than 45 µM on human SCD5 and 6.24 µM on human SCD1.

Consider `Cc1cncc(Cc2ccc(NC(=O)C3=NN(C)C(=O)CC3)nc2)c1` [Compound 437], for which the IC50 on human SCD5 and on human SCD1 was more than 45 µM throughout.

Regarding `CO[C@H]1C[C@@H](C(=O)Nc2ccc(Cc3cccc(F)c3)cn2)N(C)C1` [Compound 438], the IC50 at human SCD5 and on human SCD1 was more than 45 µM in each case.

As for `CN1N=C(C(=O)Nc2ccc(NCc3cc(F)cc(C#N)c3)nc2)CCC1=O` [Compound 439], the IC50 at human SCD5 and at human SCD1 was more than 45 µM each time.

For `CN1N=C(C(=O)Nc2ccc(Cc3cccc(C=O)c3)cn2)CCC1=O` [Compound 440], the IC50 at human SCD5 and on human SCD1 was more than 45 µM each time.

With `Cn1nc(C(=O)Nc2ccc(OCc3cc(F)cc(C#N)c3)cn2)ccc1=O` [Compound 441], the IC50 at human SCD5 and at human SCD1 was more than 45 µM each time.

Take `CN1N=C(C(=O)Nc2ccc(Cc3cncc(F)c3)cn2)CCC1=O` [Compound 442]: the IC50 on human SCD5 and on human SCD1 was more than 45 µM each time.

As to `CN1N=C(C(=O)Nc2cnc(Cc3cccc(Cl)c3)nc2)CCC1=O` [Compound 443], the IC50 at human SCD5 and on human SCD1 was more than 45 µM each time.

For `C=CCCc1ccc(NC(=O)C2=NN(C)C(=O)CC2)nc1` [Compound 444], the IC50 on human SCD5 and on human SCD1 was more than 45 µM throughout.

Regarding `CN1N=C(C(=O)Nc2ccc(Cc3cccc(C(F)(F)F)n3)cn2)CCC1=O` [Compound 445], the 50% inhibitory concentration (IC50) at human SCD5 and at human SCD1 was more than 45 µM throughout.

`CO[C@H]1C[C@@H](C(=O)Nc2ccc(Cc3cccc(F)c3)cn2)N(C(=O)OC(C)(C)C)C1` [Compound 446]: the IC50 on human SCD5 and on human SCD1 was more than 45 µM in each case.

Take `CO[C@@H]1CN[C@H](C(=O)Nc2ccc(Cc3cccc(F)c3)cn2)C1` [Compound 447]: the IC50 on human SCD5 and at human SCD1 was more than 45 µM each time.

As for `Cc1nc(C(=O)Nc2ccc(Cc3cccc(F)c3)cn2)ccc1F` [Compound 448], the IC50 on human SCD5 and at human SCD1 was more than 45 µM in each case.

Regarding `Cc1ccc(Cc2ccc(NC(=O)c3ccc(=O)n(C)c3)nc2)cn1` [Compound 449], the IC50 on human SCD5 and on human SCD1 was more than 45 µM each time.

As to `Cc1cncc(Cc2ccc(NC(=O)c3ccc(=O)n(C)c3)nc2)c1` [Compound 450], the IC50 at human SCD5 and on human SCD1 was more than 45 µM throughout.

As for `O=C(O)c1ccc(C(=O)Nc2ccc(Cc3cccc(Cl)c3)cn2)nn1` [Compound 451], the IC50 on human SCD5 was more than 45 µM; on human SCD1, 1.4 µM.

On to `Cn1cc(C(=O)Nc2ccc(COc3ccc(F)cc3)cn2)ccc1=O` [Compound 452], for which the IC50 on human SCD5 and at human SCD1 was more than 45 µM each time.

As to `Cn1cc(C(=O)Nc2ccc(Cc3cncc(F)c3)cn2)ccc1=O` [Compound 453], the IC50 is more than 45 µM on human SCD5 and 0.18 µM at human SCD1.

As to `COC(=O)c1ccc(C(=O)Nc2ccc(Cc3cccc(Cl)c3)cn2)nn1` [Compound 454], the IC50 at human SCD5 was more than 45 µM; on human SCD1, 1.93 µM.

`COc1ccc(Cn2c(C(=O)Nc3ccc(Cc4cccc(F)c4)cn3)cc(=O)n2C)cc1` [Compound 455]: the IC50 on human SCD5 and at human SCD1 was more than 45 µM in each case.

Regarding `COc1ccc(Cn2c(C(=O)Nc3ccc(Cc4cccc(Cl)c4)cn3)cc(=O)n2C)cc1` [Compound 456], the IC50 on human SCD5 and at human SCD1 was more than 45 µM in each case.

As for `Cn1cc(-c2ccc(NC(=O)Cc3cccc(F)c3)nc2)ccc1=O` [Compound 457], the IC50 at human SCD5 and at human SCD1 was more than 45 µM each time.

`CN1C(=O)OC[C@H]1C(=O)Nc1ccc(Cc2cccc(F)c2)cn1` [Compound 458]: the IC50 on human SCD5 and at human SCD1 was more than 45 µM in each case.

On to `Cn1c(C(=O)Nc2ccc(Cc3cccc(F)c3)cn2)cc(=O)n1C` [Compound 459], for which the IC50 at human SCD5 and at human SCD1 was more than 45 µM each time.

Consider `Cn1c(C(=O)Nc2ccc(Cc3cccc(Cl)c3)cn2)cc(=O)n1C` [Compound 460], for which the IC50 at human SCD5 and at human SCD1 was more than 45 µM each time.

Consider `Cn1cc(C(=O)Nc2nnc(Cc3cccc(F)c3)s2)ccc1=O` [Compound 461], for which the IC50 on human SCD5 and on human SCD1 was more than 45 µM in each case.

Regarding `Cn1cc(C(=O)Nc2nnc(Cc3cccc(Cl)c3)s2)ccc1=O` [Compound 462], the IC50 at human SCD5 and on human SCD1 was more than 45 µM each time.

On to `Cn1cc(C(=O)N2CCC(Oc3cccc(Cl)c3)CC2)ccc1=O` [Compound 464], for which the IC50 at human SCD5 and on human SCD1 was more than 45 µM in each case.

Regarding `Cn1cc(C(=O)N[C@H]2CC[C@@H](Cc3cccc(Cl)c3)CC2)ccc1=O` [Compound 465], the IC50 on human SCD5 and on human SCD1 was more than 45 µM in each case.

In the case of `Cn1cc(C(=O)NC2CCC(Oc3cccc(Cl)c3)CC2)ccc1=O` (stereo not shown) [Compound 466], the IC50 at human SCD5 and on human SCD1 was more than 45 µM in each case.

Take `Cn1cc(-c2ccc(C(=O)NCc3cccc(F)c3)nc2)ccc1=O` [Compound 467]: the IC50 at human SCD5 and on human SCD1 was more than 45 µM in each case.

`CN1N=C(C(=O)Nc2ccc(CC3CC3)cn2)CCC1=O` [Compound 468]: the IC50 on human SCD5 and on human SCD1 was more than 45 µM in each case.

With `Cc1ccnc(Cc2ccc(NC(=O)C3=NN(C)C(=O)CC3)nc2)c1` [Compound 469], the IC50 on human SCD5 and at human SCD1 was more than 45 µM in each case.
